Assay results reported in ChEMBL document CHEMBL1153213, “Inhibition of CTP synthase from Escherichia coli by xanthines and uric acids” (Bioorg Med Chem Lett, 2010).
Calls of active or inactive are those of the source. The calls are words filed in the database; no cut-off is given here.

What was measured:
[1] = Inhibition of Escherichia coli recombinant N-terminal hexahistidine-tagged CTP synthetase expressed in Escherichia coli BL21 (DE3) assessed as inhibition of CTP formation by continuous spectrophotometric assay in presence of 10 mM L-glutamine and 0.15 mM GTP
[2] = Inhibition of Escherichia coli recombinant N-terminal hexahistidine-tagged CTP synthetase expressed in Escherichia coli BL21 (DE3) assessed as inhibition of CTP formation by continuous spectrophotometric assay in presence of 150 mM NH4Cl
Escherichia coli [3] = test: Inhibition of Escherichia coli recombinant N-terminal hexahistidine-tagged CTP synthetase expressed in Escherichia coli BL21 (DE3) assessed as inhibition of CTP formation at 1 mM in presence of 1mM UTP
Escherichia coli [4] = test: Inhibition of Escherichia coli recombinant N-terminal hexahistidine-tagged CTP synthetase expressed in Escherichia coli BL21 (DE3) assessed as inhibition of CTP formation at 1 mM in presence of 1mM ATP
[5] = Inhibition of Escherichia coli recombinant N-terminal hexahistidine-tagged CTP synthetase expressed in Escherichia coli BL21 (DE3) assessed as inhibition of CTP formation in TAPS buffer at pH 8.5 by continuous spectrophotometric assay in presence of 10 mM L-glutamine and 0.15 mM GTP
[6] = Inhibition of Escherichia coli recombinant N-terminal hexahistidine-tagged CTP synthetase expressed in Escherichia coli BL21 (DE3) assessed as inhibition of CTP formation in Hepes buffer at pH 8 by continuous spectrophotometric assay in presence of 150 mM NH4Cl
[7] = Inhibition of Escherichia coli recombinant N-terminal hexahistidine-tagged CTP synthetase expressed in Escherichia coli BL21 (DE3) assessed as inhibition of CTP formation in Hepes buffer at pH 8 by continuous spectrophotometric assay in presence of 10 mM L-glutamine and 0.15 mM GTP
[8] = Inhibition of Escherichia coli recombinant N-terminal hexahistidine-tagged CTP synthetase expressed in Escherichia coli BL21 (DE3) assessed as inhibition of CTP formation in TAPS buffer at pH 8.5 by continuous spectrophotometric assay in presence of 150 mM NH4Cl
[9] = Multisite inhibition of Escherichia coli recombinant N-terminal hexahistidine-tagged CTP synthetase expressed in Escherichia coli BL21 (DE3) assessed as inhibition of CTP formation in Hepes buffer at pH 8 in presence of 5.44 mM NH4Cl
[10] = Multisite inhibition of Escherichia coli recombinant N-terminal hexahistidine-tagged CTP synthetase expressed in Escherichia coli BL21 (DE3) assessed as inhibition of CTP formation in Hepes buffer at pH 8 in presence of 0.54 mM NH4Cl
[11] = Multisite inhibition of Escherichia coli recombinant N-terminal hexahistidine-tagged CTP synthetase expressed in Escherichia coli BL21 (DE3) assessed as inhibition of CTP formation in Hepes buffer at pH 8 in presence of 1.36 mM NH4Cl
[12] = Multisite inhibition of Escherichia coli recombinant N-terminal hexahistidine-tagged CTP synthetase expressed in Escherichia coli BL21 (DE3) assessed as inhibition of CTP formation in Hepes buffer at pH 8 in presence of 2.72 mM NH4Cl
[13] = Multisite inhibition of Escherichia coli recombinant N-terminal hexahistidine-tagged CTP synthetase expressed in Escherichia coli BL21 (DE3) assessed as inhibition of CTP formation in Hepes buffer at pH 8 in presence of 8.16 mM NH4Cl

Structure (SMILES)	IC50 ([1]; read-out: IC50)	IC50 ([2]; read-out: IC50)	IC50 [5]	IC50 [6]	IC50 [7]	IC50 [8]	also measured
Cn1c(=O)c2c(n(C)c1=O)n(C)c(=O)n2C	79 µM	121 µM	–	–	–	–	–
Cn1c(=O)c2c([nH]c(=O)n2C)n(C)c1=O	67 µM	70 µM	–	–	–	–	–
Cn1c(=O)[nH]c(=O)c2c1[nH]c(=O)n2C	63 µM	90 µM	–	–	–	–	inhibition (Escherichia coli [3]): inactive; inhibition (Escherichia coli [4]): inactive
O=C(O)Cc1cc(=O)[nH]c(=O)[nH]1	2600 µM	3170 µM	–	–	–	–	–
Cn1c(=O)[nH]c2[nH]c(=O)[nH]c2c1=O	101 µM	96 µM	–	–	–	–	–
Cn1c(=O)[nH]c2[nH]c(=O)n(C)c2c1=O	–	–	61 µM	119 µM	113 µM	109 µM	–
Cn1c(=O)c2[nH]c(=O)[nH]c2n(C)c1=O	–	–	64 µM	72 µM	88 µM	99 µM	–
Nc1[nH]cnc2ncnc1-2 [ADENINE]	15800 µM	12900 µM	–	–	–	–	–
NC(=O)NC1NC(=O)NC1=O (stereo unspecified) [ALLANTOIN]	–	–	–	–	–	–	IC50 [1]: Not Active; IC50 [2]: Not Active
Cn1c(=O)c2nc[nH]c2n(C)c1=O [THEOPHYLLINE]	–	–	300 µM	550 µM	430 µM	400 µM	–

Now from value to compound, other results behind:

IC50 ([1]; read-out: IC50)	IC50 ([2]; read-out: IC50)	IC50 [5]	IC50 [6]	IC50 [7]	IC50 [8]	Structure (SMILES)	also measured
–	11000 µM	–	–	–	–	Nc1ncnc2c1ncn2[C@@H]1O[C@H](CO)[C@@H](O)[C@H]1O [ADENOSINE]	–
390 µM	510 µM	–	–	–	–	Cn1c(=O)c2c(ncn2C)n(C)c1=O [CAFFEINE]	inhibition (Escherichia coli [3]): inactive; IC50 [9]: 450 µM; IC50 [10]: 440 µM; IC50 [11]: 450 µM; IC50 [12]: 420 µM; IC50 [13]: 440 µM; inhibition (Escherichia coli [4]): inactive
–	–	200 µM	480 µM	440 µM	360 µM	Cn1c(=O)[nH]c2ncn(C)c2c1=O [PARAXANTHINE]	–
420 µM	580 µM	–	–	–	–	Cn1cnc2c1c(=O)[nH]c(=O)n2C [THEOBROMINE]	–
4200 µM	4700 µM	–	–	–	–	O=c1cc[nH]c(=O)[nH]1 [URACIL]	–
–	–	60 µM	87 µM	60 µM	113 µM	Oc1nc(O)c2nc(O)[nH]c2n1 [URIC ACID]	–
3100 µM	4600 µM	–	–	–	–	O=c1ccn([C@@H]2O[C@H](CO)[C@@H](O)[C@H]2O)c(=O)[nH]1 [URIDINE]	–
–	–	160 µM	370 µM	230 µM	220 µM	O=c1[nH]c(=O)c2nc[nH]c2[nH]1 [XANTHINE]	–
